ChEMBL document CHEMBL1201862, “PubChem BioAssay data set” (2004)
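Cultured in 96-well plates, cells were exposed to test compound for 48 hours across five concentrations. At the GI50, growth is halved.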 Activity calls are given as the source filed them. No stated cut-off is given here; in the data, active = GI50 up to about 1.1 µM and inactive = higher.

Key:
Test in all cases: inhibition of tumour cell growth, NCI panel, 48 h
[1] = system: 786-0
[2] = system: A549
[3] = system: ACHN
[4] = system: HOP-92
[5] = system: K562
[6] = system: LOX IMVI
[7] = system: Malme-3M
[8] = system: NCI-H460
[9] = system: NCI-H522
[10] = system: SF-539
[11] = system: SK-MEL-2
[12] = system: SK-MEL-5
[13] = system: SK-OV-3
[14] = system: SN12C
[15] = system: UO-31
[16] = system: SW-620
[17] = system: NCI-H23

## C=C[C@@H](C)[C@]1(C(=O)OC)CCCC12OCCO2
[1]
  GI50: 63.8 µM (inactive)
[2]
  GI50: > 100 µM (inactive)
[3]
  GI50: > 100 µM (inactive)
[4]
  GI50: > 100 µM (inactive)
[5]
  GI50: > 100 µM (inactive)
[6]
  GI50: > 100 µM (inactive)
[7]
  GI50: > 100 µM (inactive)
[8]
  GI50: > 100 µM (inactive)
[9]
  GI50: 82.2 µM (inactive)
[10]
  GI50: > 100 µM (inactive)
[11]
  GI50: > 100 µM (inactive)
[12]
  GI50: > 100 µM (inactive)
[13]
  GI50: > 100 µM (inactive)
[14]
  GI50: > 100 µM (inactive)
[15]
  GI50: > 100 µM (inactive)

## C=CCC1(C)CCCCC1(O)C[S+]([O-])c1ccccc1 (configuration not stated)
[1]
  GI50: > 100 µM (inactive)
[2]
  GI50: > 100 µM (inactive)
[3]
  GI50: > 100 µM (inactive)
[4]
  GI50: > 100 µM (inactive)
[6]
  GI50: > 100 µM (inactive)
[7]
  GI50: > 100 µM (inactive)
[8]
  GI50: > 100 µM (inactive)
[9]
  GI50: > 100 µM (inactive)
[10]
  GI50: > 100 µM (inactive)
[12]
  GI50: > 100 µM (inactive)
[13]
  GI50: > 100 µM (inactive)
[14]
  GI50: > 100 µM (inactive)
[16]
  GI50: > 100 µM (inactive)
[15]
  GI50: > 100 µM (inactive)

## CCOc1ccc(NC(=O)CC2SC(Nc3ccc(Cl)cc3)=NC2=O)cc1 (configuration not stated)
[1]
  GI50: > 100 µM (inactive)
[2]
  GI50: > 100 µM (inactive)
[3]
  GI50: > 100 µM (inactive)
[5]
  GI50: 23.9 µM (inactive)
[6]
  GI50: > 100 µM (inactive)
[7]
  GI50: > 100 µM (inactive)
[17]
  GI50: > 100 µM (inactive)
[8]
  GI50: > 100 µM (inactive)
[9]
  GI50: > 10 µM (inactive)
[10]
  GI50: > 100 µM (inactive)
[11]
  GI50: > 100 µM (inactive)
[12]
  GI50: > 100 µM (inactive)
[13]
  GI50: > 100 µM (inactive)
[14]
  GI50: > 100 µM (inactive)
[16]
  GI50: 98.9 µM (inactive)
[15]
  GI50: > 100 µM (inactive)

## O=S(=O)(O)SC/C=C\CSS(=O)(=O)O
[1]
  GI50: > 100 µM (inactive)
[2]
  GI50: > 100 µM (inactive)
[3]
  GI50: > 100 µM (inactive)
[4]
  GI50: > 100 µM (inactive)
[5]
  GI50: > 100 µM (inactive)
[6]
  GI50: 29.4 µM (inactive)
[7]
  GI50: > 100 µM (inactive)
[17]
  GI50: > 100 µM (inactive)
[8]
  GI50: 42.2 µM (inactive)
[9]
  GI50: > 100 µM (inactive)
[10]
  GI50: > 100 µM (inactive)
[12]
  GI50: > 100 µM (inactive)
[13]
  GI50: > 100 µM (inactive)
[14]
  GI50: > 100 µM (inactive)
[16]
  GI50: > 100 µM (inactive)
[15]
  GI50: > 100 µM (inactive)

## O=c1ccc2ccc(O)c3c4c(O)ccc5ccc(=O)c(c1c23)c54
[1]
  GI50: 2.31 µM (inactive)
[2]
  GI50: 2.95 µM (inactive)
[3]
  GI50: 2.69 µM (inactive)
[5]
  GI50: 2.07 µM (inactive)
[6]
  GI50: 1.18 µM (inactive)
[7]
  GI50: 0.371 µM (active)
[17]
  GI50: 1.66 µM (inactive)
[8]
  GI50: 3.56 µM (inactive)
[9]
  GI50: 1.45 µM (inactive)
[10]
  GI50: 1.69 µM (inactive)
[11]
  GI50: 1.45 µM (inactive)
[12]
  GI50: 1.14 µM (inactive)
[13]
  GI50: 4.02 µM (inactive)
[14]
  GI50: 2.08 µM (inactive)
[16]
  GI50: 2.07 µM (inactive)
[15]
  GI50: 1.65 µM (inactive)

## O=C(NC1CCCCC1)NS(=O)(=O)c1ccc2c(c1)CCC2 [GLYHEXAMIDE]
[1]
  GI50: > 100 µM (inactive)
[2]
  GI50: > 100 µM (inactive)
[3]
  GI50: > 100 µM (inactive)
[4]
  GI50: > 100 µM (inactive)
[5]
  GI50: > 100 µM (inactive)
[6]
  GI50: > 100 µM (inactive)
[7]
  GI50: > 100 µM (inactive)
[17]
  GI50: > 100 µM (inactive)
[9]
  GI50: > 100 µM (inactive)
[10]
  GI50: > 100 µM (inactive)
[11]
  GI50: > 100 µM (inactive)
[13]
  GI50: > 100 µM (inactive)
[14]
  GI50: > 100 µM (inactive)
[16]
  GI50: > 100 µM (inactive)
[15]
  GI50: > 100 µM (inactive)

## O=C(N/N=C1/C(=O)N(c2ccc(Cl)cc2Cl)C(=O)C(=O)C1c1nc2ccccc2o1)c1ccccc1O (configuration not stated)
[1]
  GI50: 51.6 µM (inactive)
[2]
  GI50: 33 µM (inactive)
[3]
  GI50: 37.5 µM (inactive)
[4]
  GI50: 30.5 µM (inactive)
[5]
  GI50: 47 µM (inactive)
[7]
  GI50: 27.3 µM (inactive)
[17]
  GI50: 25.7 µM (inactive)
[8]
  GI50: 44.8 µM (inactive)
[9]
  GI50: 30.8 µM (inactive)
[10]
  GI50: 29.4 µM (inactive)
[11]
  GI50: 41.3 µM (inactive)
[12]
  GI50: 19 µM (inactive)
[13]
  GI50: 33 µM (inactive)
[14]
  GI50: 33.8 µM (inactive)
[16]
  GI50: 47.9 µM (inactive)

## CCCCCCCCCCCCC(SCCNC(=O)CCNC(=O)C(O)C(C)(C)COP(=O)(O)OP(=O)(O)OCC1OC(n2cnc3c(N)ncnc32)C(O)C1OP(=O)(O)O)C(=O)NCC(N)=O (configuration not stated)
[1]
  GI50: > 100 µM (inactive)
[2]
  GI50: > 100 µM (inactive)
[3]
  GI50: 56.6 µM (inactive)
[4]
  GI50: 38.3 µM (inactive)
[6]
  GI50: > 100 µM (inactive)
[7]
  GI50: > 100 µM (inactive)
[17]
  GI50: > 100 µM (inactive)
[8]
  GI50: 91.6 µM (inactive)
[9]
  GI50: 69.2 µM (inactive)
[10]
  GI50: 52.2 µM (inactive)
[11]
  GI50: > 100 µM (inactive)
[12]
  GI50: > 100 µM (inactive)
[13]
  GI50: 18.6 µM (inactive)
[14]
  GI50: 40.1 µM (inactive)
[16]
  GI50: > 100 µM (inactive)
[15]
  GI50: 64.9 µM (inactive)

## CCOc1ccc(N2C(=O)C3c4[nH]c5ccccc5c4C4CCC(C(C)(C)C)CC4C3C2=O)cc1 (configuration not stated)
[1]
  GI50: 50.6 µM (inactive)
[2]
  GI50: 62.4 µM (inactive)
[3]
  GI50: 57.5 µM (inactive)
[4]
  GI50: > 100 µM (inactive)
[5]
  GI50: > 100 µM (inactive)
[7]
  GI50: > 100 µM (inactive)
[17]
  GI50: 82.8 µM (inactive)
[9]
  GI50: 66.7 µM (inactive)
[10]
  GI50: > 100 µM (inactive)
[12]
  GI50: > 100 µM (inactive)
[13]
  GI50: > 100 µM (inactive)
[14]
  GI50: 51.3 µM (inactive)
[16]
  GI50: > 100 µM (inactive)
[15]
  GI50: 69.2 µM (inactive)

## Oc1ccc2c(c1)CC[N+]1=C2CCC2CCCC21 (configuration not stated) [QUINDONIUM BROMIDE]
[1]
  GI50: > 100 µM (inactive)
[2]
  GI50: > 100 µM (inactive)
[3]
  GI50: > 100 µM (inactive)
[4]
  GI50: > 100 µM (inactive)
[6]
  GI50: > 100 µM (inactive)
[17]
  GI50: > 100 µM (inactive)
[8]
  GI50: > 100 µM (inactive)
[10]
  GI50: > 100 µM (inactive)
[11]
  GI50: > 100 µM (inactive)
[12]
  GI50: > 100 µM (inactive)
[13]
  GI50: > 100 µM (inactive)
[14]
  GI50: > 100 µM (inactive)
[16]
  GI50: > 100 µM (inactive)
[15]
  GI50: > 100 µM (inactive)

## O=[N+]([O-])c1cccc(Nc2nc(Cl)nc(Cl)n2)c1
[1]
  GI50: > 100 µM (inactive)
[2]
  GI50: > 100 µM (inactive)
[3]
  GI50: > 100 µM (inactive)
[5]
  GI50: > 100 µM (inactive)
[6]
  GI50: > 100 µM (inactive)
[7]
  GI50: > 100 µM (inactive)
[17]
  GI50: > 100 µM (inactive)
[8]
  GI50: > 100 µM (inactive)
[9]
  GI50: > 100 µM (inactive)
[10]
  GI50: > 100 µM (inactive)
[11]
  GI50: > 100 µM (inactive)
[12]
  GI50: > 100 µM (inactive)
[13]
  GI50: > 100 µM (inactive)
[14]
  GI50: > 100 µM (inactive)
[16]
  GI50: > 100 µM (inactive)
[15]
  GI50: > 100 µM (inactive)

## COc1cc(O)c(C(=O)CC(C)=O)c(OC)c1
[1]
  GI50: > 100 µM (inactive)
[2]
  GI50: > 100 µM (inactive)
[3]
  GI50: > 100 µM (inactive)
[5]
  GI50: > 100 µM (inactive)
[6]
  GI50: > 100 µM (inactive)
[7]
  GI50: > 100 µM (inactive)
[17]
  GI50: > 100 µM (inactive)
[8]
  GI50: > 100 µM (inactive)
[9]
  GI50: > 100 µM (inactive)
[10]
  GI50: > 100 µM (inactive)
[11]
  GI50: > 100 µM (inactive)
[12]
  GI50: > 100 µM (inactive)
[13]
  GI50: > 100 µM (inactive)
[14]
  GI50: > 100 µM (inactive)
[16]
  GI50: > 100 µM (inactive)
[15]
  GI50: > 100 µM (inactive)

## CC(=O)N1CCc2[nH]c3ccccc3c2CC1
[1]
  GI50: > 100 µM (inactive)
[2]
  GI50: > 100 µM (inactive)
[3]
  GI50: > 100 µM (inactive)
[4]
  GI50: 31.5 µM (inactive)
[5]
  GI50: > 100 µM (inactive)
[6]
  GI50: > 100 µM (inactive)
[7]
  GI50: > 100 µM (inactive)
[17]
  GI50: > 100 µM (inactive)
[8]
  GI50: > 100 µM (inactive)
[10]
  GI50: > 100 µM (inactive)
[11]
  GI50: > 100 µM (inactive)
[12]
  GI50: > 100 µM (inactive)
[13]
  GI50: > 100 µM (inactive)
[16]
  GI50: > 100 µM (inactive)
